The CheMixHub ionic liquid set

Test: xn = mol fraction of the nth substance listed

CCO + CCCC[n+]1ccn(C)c1.[Cl-]
Conditions | viscosity [mPa·s]
303.15 K, 101 kPa, x1 = 1 | 0.99

CCCCCC[N+]1(C)CCCC1.O=S(=O)([N-]S(=O)(=O)C(F)(F)F)C(F)(F)F + O=S1(=O)CCCC1
101.33 kPa, x1 = 0.5
Conditions | viscosity [mPa·s]
303.25 K | 30.7
313.25 K | 22.1
323.25 K | 16.4
333.15 K | 12.2
343.15 K | 9
353.15 K | 7.2

CCO + COP(=O)([O-])OC.Cn1cc[n+](C)c1
100 kPa, x2 = 0
Conditions | viscosity [mPa·s]
298.15 K | 1.08
308.15 K | 0.89
328.15 K | 0.646

CCCC[N+](CCCC)(CCCC)Cc1ccccc1.[Cl-] + O=C([O-])C1=NN(c2ccc(S(=O)(=O)[O-])cc2)C(=O)C1N=Nc1ccc(S(=O)(=O)[O-])cc1.[Na+].[Na+].[Na+] + O
electrical conductivity [S/m], 101.3 kPa, frequency 0.001 MHz
Conditions | 298.15 K | 308.15 K | 318.15 K
x2 = 0, x1 = 1.802e-05 | 0.0104 | 0.0139 | 0.0173
x2 = 0, x1 = 5.406e-05 | 0.0231 | 0.0284 | 0.0345
x2 = 0, x1 = 9.009e-05 | 0.0367 | 0.0457 | 0.0546

viscosity [mPa·s], 101.3 kPa
Conditions | 298.15 K | 308.15 K | 318.15 K
x2 = 0, x1 = 1.802e-05 | 0.906 | 0.775 | 0.643
x2 = 0, x1 = 5.406e-05 | 0.923 | 0.793 | 0.659
x2 = 0, x1 = 9.009e-05 | 0.942 | – | –

CCO + CCCC[n+]1ccn(C)c1.[I-]
Conditions | electrical conductivity [S/m]
298.15 K, 100 kPa, x2 = 0 | 3.98e-05

CCO + CC[n+]1ccn(C)c1.[I-]
Conditions | electrical conductivity [S/m]
298.15 K, 100 kPa, x2 = 0 | 5.54e-05

CCO + CC[n+]1ccn(C)c1.N#C[S-]
101 kPa, x2 = 0
Conditions | viscosity [mPa·s]
293.15 K | 1.18
303.15 K | 0.98

C[N+](C)(CCO)CCOCCO.[Cl-] + NC(N)=O
100 kPa, x1 = 0.5
Conditions | viscosity [mPa·s]
283.15 K | 19700
288.15 K | 10900
293.15 K | 5978
298.15 K | 3500
303.15 K | 2189
308.15 K | 1389
313.15 K | 903
318.15 K | 616
323.15 K | 424
328.15 K | 305
333.15 K | 221
338.15 K | 166
343.15 K | 126
348.15 K | 97.9
353.15 K | 77.4

CCCC[N+](CCCC)(CCCC)Cc1ccccc1.[Cl-] + O
electrical conductivity [S/m], frequency 0.001 MHz
Conditions | 293.15 K | 298.15 K | 303.15 K | 308.15 K | 313.15 K | 318.15 K
100 kPa, x1 = 1.802e-05 | 0.0056 | 0.0105 | 0.0171 | 0.0235 | 0.0329 | –
100 kPa, x1 = 5.406e-05 | 0.0129 | 0.0203 | 0.0243 | 0.0288 | 0.0396 | –
100 kPa, x1 = 9.009e-05 | 0.0172 | 0.0255 | 0.0327 | 0.0349 | 0.0468 | –
101.3 kPa, x1 = 1.802e-05 | – | 0.0104 | – | 0.0139 | – | 0.0173
101.3 kPa, x1 = 5.406e-05 | – | 0.0231 | – | 0.0284 | – | 0.0345
101.3 kPa, x1 = 9.009e-05 | – | 0.0367 | – | 0.0457 | – | 0.0546

viscosity [mPa·s]
Conditions | 293.15 K | 298.15 K | 303.15 K | 308.15 K | 318.15 K
100 kPa, x1 = 1.802e-05 | 0.953 | 0.913 | 0.876 | – | –
100 kPa, x1 = 5.406e-05 | 0.961 | 0.921 | 0.88 | – | –
100 kPa, x1 = 9.009e-05 | 0.972 | 0.93 | – | – | –
101.3 kPa, x1 = 1.802e-05 | – | 0.906 | – | 0.775 | 0.643
101.3 kPa, x1 = 5.406e-05 | – | 0.923 | – | 0.793 | 0.659
101.3 kPa, x1 = 9.009e-05 | – | 0.942 | – | – | –

O=S(=O)([N-]S(=O)(=O)C(F)(F)F)C(F)(F)F.[Rb+] + O=S(=O)([N-]S(=O)(=O)C(F)(F)F)C(F)(F)F.[Li+]
100 kPa, x2 = 0.25
Conditions | viscosity [mPa·s]
452.5 K | 47.7
463 K | 36.9
483.1 K | 22.7
523.6 K | 10.2
531.9 K | 8.55

100 kPa, frequency 1 MHz, x2 = 0.25
Conditions | electrical conductivity [S/m]
512.5 K | 2.82
531.5 K | 3.59

CC[n+]1ccn(C)c1.O=C([O-])[C@@H]1CCCN1 + CC[n+]1ccn(C)c1.N#C[C-](C#N)C#N
Conditions | viscosity [mPa·s]
298.15 K, 101 kPa, x2 = 0 | 1195

Oc1cccc(O)c1O + CCCCCCCCCCCC[N+](C)(C)C.[Br-]
101.3 kPa, x2 = 0.333
Conditions | electrical conductivity [S/m] | viscosity [mPa·s]
293.15 K | 0.00471 | –
298.15 K | 0.00821 | –
333.15 K | 0.14 | 400

CCCCCCCCCCCCOS(=O)(=O)[O-].CCCC[n+]1ccn(C)c1 + O
Conditions | viscosity [mPa·s]
333 K, 101 kPa, x1 = 0.06262 | 970000

CCO + C[N+](C)(C)CCC[n+]1ccccc1.N#C[N-]C#N.N#C[N-]C#N
100 kPa, x2 = 0
Conditions | viscosity [mPa·s]
293.15 K | 1.19
303.15 K | 0.991
313.15 K | 0.828
323.15 K | 0.705
333.15 K | 0.593

CCO + CCCCCCCC(=O)[O-].c1c[nH+]c[nH]1
101.3 kPa, x1 = 1
Conditions | viscosity [mPa·s]
293.15 K | 1.21
303.15 K | 1

CCO + COP(=O)([O-])OC.C[N+]1(CCO)CCCC1
Conditions | viscosity [mPa·s]
298.15 K, 100 kPa, x2 = 0 | 1.08

CCC[N+]1(C)CCCCC1.[Br-] + O + CC[N+]1(C)CCCCC1.[Br-]
Conditions | viscosity [mPa·s]
293.15 K, 101 kPa, x3 = 0.00299, x1 = 0.005976 | 1.575
